Reference: patent US10150760B2, “Compounds for use in preparing heterocyclic triazole agonists of the APJ receptor” (AMGEN INC., priority 2016, dated 2018)

biological target: human APJ receptor (Homo sapiens (Human), UniProt P35414); assay: [35S]GTPγS binding assay on membranes from CHO cells stably expressing human APJ receptor; format: biochemical; conditions: read-out: Activity hAPJ SPA EC50 IP
Method in brief: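 Membranes from CHO cells stably expressing human APJ incubated with ligand, 0.2 nM [35S]GTPγS and WGA SPA beads in HEPES pH 7.5 with 5 mM MgCl2, 200 mM NaCl, 3 μM GDP, 90 min at RT. Nonspecific binding defined with 100 μM GTPγS; EC50 by non-linear regression.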

Sequence of human APJ receptor (P35414 whole entry): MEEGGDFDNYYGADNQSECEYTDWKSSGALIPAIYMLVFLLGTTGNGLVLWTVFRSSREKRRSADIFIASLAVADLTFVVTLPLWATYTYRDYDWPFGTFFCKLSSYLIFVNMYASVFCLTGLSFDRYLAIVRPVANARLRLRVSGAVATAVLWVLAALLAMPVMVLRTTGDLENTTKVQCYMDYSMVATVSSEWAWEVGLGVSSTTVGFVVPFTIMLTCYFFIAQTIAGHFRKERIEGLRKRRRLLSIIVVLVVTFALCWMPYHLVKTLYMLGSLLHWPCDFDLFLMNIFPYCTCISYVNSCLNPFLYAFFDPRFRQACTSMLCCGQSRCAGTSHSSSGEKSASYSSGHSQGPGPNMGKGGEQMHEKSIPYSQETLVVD

In order of rising EC50:
1. COc1cccc(OC)c1-n1c(NS(=O)(=O)[C@@H](C)[C@H](C)c2ncc(Cl)cn2)nnc1[C@H]1OCC[C@H]1C (single isomer, unassigned) [Example 68.0, (2S,3R)-3-(5-chloropyrimidin-2-yl)-N-(4-(2,6-dimethoxyphenyl)-5-((2S,3R)-3-methyltetrahydrofuran-2-yl)-4H-1,2,4-triazol-3-yl)butane-2-sulfonamide or (2S,3R)-3-(5-chloropyrimidin-2-yl)-N-(4-(2,6-dimethoxyphenyl)-5-((2R,3S)-3-methyltetrahydrofuran-2-yl)-4H-1,2,4-triazol-3-yl)butane-2-sulfonamide]  0.014 µM
2. COc1cccc(OC)c1-n1c(NS(=O)(=O)[C@@H](C)[C@H](C)c2ncc(C)cn2)nnc1[C@H]1CCCOC1 (single isomer, unassigned) [Example 59.0, (2S,3R)-N-(4-(2,6-dimethoxyphenyl)-5-((R)-tetrahydro-2H-pyran-3-yl)-4H-1,2,4-triazol-3-yl)-3-(5-methylpyrimidin-2-yl)butane-2-sulfonamide or (2S,3R)-N-(4-(2,6-dimethoxyphenyl)-5-((S)-tetrahydro-2H-pyran-3-yl)-4H-1,2,4-triazol-3-yl)-3-(5-methylpyrimidin-2-yl)butane-2-sulfonamide]  0.016 µM
3. (2S,3R)-N-(4-(2,6-bis((tridutero)methyloxy)phenyl)-5-((3R)-tetrahydro-3-furanyl)-4H-1,2,4-triazol-3-yl)-3-(5-chloro-2-pyrimidinyl)-2-butanesulfonamide or (2S,3R)-N-(4-(2,6-bis((trideutero)methyloxy)phenyl)-5-((3S)-tetrahydro-3-furanyl)-4H-1,2,4-triazol-3-yl)-3-(5-chloro-2-pyrimidinyl)-2-butanesulfonamide [Example 392.0]  0.025 µM
4. COc1cccc(OC)c1-n1c(NS(=O)(=O)CCc2ncc(Cl)cn2)nnc1[C@@H]1COCCO1 (mixture of isomers) [Example 387.0, 2-(5-chloro-2-pyrimidinyl)-N-(4-(2,6-dimethoxyphenyl)-5-((2R)-1,4-dioxan-2-yl)-4H-1,2,4-triazol-3-yl)ethanesulfonamide and 2-(5-chloro-2-pyrimidinyl)-N-(4-(2,6-dimethoxyphenyl)-5-((2S)-1,4-dioxan-2-yl)-4H-1,2,4-triazol-3-yl)ethanesulfonamide]  0.048 µM
5. (2S,3R)-3-(5-chloropyrimidin-2-yl)-N-(4-(4,6-dimethoxypyrimidin-5-yl)-5-((R)-5,5-dimethyltetrahydrofuran-3-yl)-4H-1,2,4-triazol-3-yl)butane-2-sulfonamide or (2S,3R)-3-(5-chloropyrimidin-2-yl)-N-(4-(4,6-dimethoxypyrimidin-5-yl)-5-((S)-5,5-dimethyltetrahydrofuran-3-yl)-4H-1,2,4-triazol-3-yl)butane-2-sulfonamide [Example 317.0]  0.052 µM
6. COc1cccc(OC)c1-n1c(NS(=O)(=O)[C@@H](C)[C@H](C)c2ncc(F)cn2)nnc1[C@@H]1COC(C)(C)C1 (single isomer, unassigned) [Example 396.0, (2S,3R)-N-(4-(2,6-dimethoxyphenyl)-5-((3R)-5,5-dimethyltetrahydro-3-furanyl)-4H-1,2,4-triazol-3-yl)-3-(5-fluoro-2-pyrimidinyl)-2-butanesulfonamide or (2S,3R)-N-(4-(2,6-dimethoxyphenyl)-5-((3S)-5,5-dimethyltetrahydro-3-furanyl)-4H-1,2,4-triazol-3-yl)-3-(5-fluoro-2-pyrimidinyl)-2-butanesulfonamide]  0.058 µM
7. COc1cccc(OC)c1-n1c(NS(=O)(=O)[C@@H](C)[C@H](C)c2ncc(C)cn2)nnc1[C@H]1CCOC1 (single isomer, unassigned) [Example 55.0, (2S,3R)-N-(4-(2,6-dimethoxyphenyl)-5-((R)-tetrahydrofuran-3-yl)-4H-1,2,4-triazol-3-yl)-3-(5-methylpyrimidin-2-yl)butane-2-sulfonamide or (2S,3R)-N-(4-(2,6-dimethoxyphenyl)-5-((S)-tetrahydrofuran-3-yl)-4H-1,2,4-triazol-3-yl)-3-(5-methylpyrimidin-2-yl)butane-2-sulfonamide]  0.066 µM
8. COc1ncnc(OC)c1-n1c(NS(=O)(=O)[C@@H](C)[C@H](C)c2ncc(Cl)cn2)nnc1[C@H]1CCCO1 (single isomer, unassigned) [Example 81.0, (2S,3R)-3-(5-chloropyrimidin-2-yl)-N-(4-(4,6-dimethoxypyrimidin-5-yl)-5-((S)-tetrahydrofuran-2-yl)-4H-1,2,4-triazol-3-yl)butane-2-sulfonamide or (2S,3R)-3-(5-chloropyrimidin-2-yl)-N-(4-(4,6-dimethoxypyrimidin-5-yl)-5-((R)-tetrahydrofuran-2-yl)-4H-1,2,4-triazol-3-yl)butane-2-sulfonamide]  0.082 µM
9. COc1cccc(OC)c1-n1c(NS(=O)(=O)CCc2ccc(Cl)cc2)nnc1[C@@H]1CCCO1 (racemic) [Example 143.0, (S)-2-(4-Chlorophenyl)-N-(4-(2,6-dimethoxyphenyl)-5-(tetrahydrofuran-2-yl)-4H-1,2,4-triazol-3-yl)ethanesulfonamide and (R)-2-(4-chlorophenyl)-N-(4-(2,6-dimethoxyphenyl)-5-(tetrahydrofuran-2-yl)-4H-1,2,4-triazol-3-yl)ethanesulfonamide]  0.12 µM
10. Cc1cnc([C@@H](C)[C@H](C)S(=O)(=O)Nc2nnc([C@@H]3CCCO3)n2-c2c(F)cncc2F)nc1 [Example 25.0, (2S,3R)-N-(4-(3,5-difluoro-4-pyridinyl)-5-((2S)-tetrahydro-2-furanyl)-4H-1,2,4-triazol-3-yl)-3-(5-methyl-2-pyrimidinyl)-2-butanesulfonamide]  0.13 µM
11. COc1cccc(OC)c1-n1c(NS(=O)(=O)CCc2ncc(Cl)cn2)nnc1[C@@H]1COCCO1 (single isomer, unassigned) [Example 425.0, 2-(5-chloro-2-pyrimidinyl)-N-(4-(2,6-dimethoxyphenyl)-5-((2R)-1,4-dioxan-2-yl)-4H-1,2,4-triazol-3-yl)ethanesulfonamide or 2-(5-chloro-2-pyrimidinyl)-N-(4-(2,6-dimethoxyphenyl)-5-((2S)-1,4-dioxan-2-yl)-4H-1,2,4-triazol-3-yl)ethanesulfonamide]  0.13 µM
12. COc1cccc(OC)c1-n1c(NS(=O)(=O)CCc2ccc(Cl)cc2)nnc1[C@H]1CCOC1 (single isomer, unassigned) [Example 9.0, (R)-2-(4-Chlorophenyl)-N-(4-(2,6-dimethoxyphenyl)-5-(tetrahydrofuran-3-yl)-4H-1,2,4-triazol-3-yl)ethanesulfonamide or (S)-2-(4-chlorophenyl)-N-(4-(2,6-dimethoxyphenyl)-5-(tetrahydrofuran-3-yl)-4H-1,2,4-triazol-3-yl)ethanesulfonamide]  0.21 µM
13. COc1cccc(OC)c1-n1c(NS(=O)(=O)[C@@H](C)[C@H](OC)c2ncc(Cl)cn2)nnc1[C@H]1CCO[C@@H]1C (single isomer, unassigned) [Example 115.0, (1R,2S)-1-(5-chloropyrimidin-2-yl)-N-(4-(2,6-dimethoxyphenyl)-5-((2R,3S)-2-methyltetrahydrofuran-3-yl)-4H-1,2,4-triazol-3-yl)-1-methoxypropane-2-sulfonamide or (1R,2S)-1-(5-chloropyrimidin-2-yl)-N-(4-(2,6-dimethoxyphenyl)-5-((2S,3R)-2-methyltetrahydrofuran-3-yl)-4H-1,2,4-triazol-3-yl)-1-methoxypropane-2-sulfonamide]  0.21 µM
14. (2R,3S)-N-(4-(2,6-dimethoxyphenyl)-5-((S)-tetrahydrofuran-2-yl)-4H-1,2,4-triazol-3-yl)-3-(5-methylpyrimidin-2-yl)butane-2-sulfonamide or (2R,3S)-N-(4-(2,6-dimethoxyphenyl)-5-((R)-tetrahydrofuran-2-yl)-4H-1,2,4-triazol-3-yl)-3-(5-methylpyrimidin-2-yl)butane-2-sulfonamide [Example 219.0]  0.22 µM
15. COc1cccc(OC)c1-n1c(NS(=O)(=O)[C@@H](C)[C@H](C)c2cnc(C)cn2)nnc1[C@H]1CCOC1 (single isomer, unassigned) [Example 133.0, (2S,3R)-N-(4-(2,6-dimethoxyphenyl)-5-((R)-tetrahydrofuran-3-yl)-4H-1,2,4-triazol-3-yl)-3-(5-methylpyrazin-2-yl)butane-2-sulfonamide or (2S,3R)-N-(4-(2,6-dimethoxyphenyl)-5-((S)-tetrahydrofuran-3-yl)-4H-1,2,4-triazol-3-yl)-3-(5-methylpyrazin-2-yl)butane-2-sulfonamide]  0.32 µM
16. (1R,2S)-N-(4-(4,6-dimethoxypyrimidin-5-yl)-5-((S)-tetrahydrofuran-2-yl)-4H-1,2,4-triazol-3-yl)-1-methoxy-1-(5-methylpyrazin-2-yl)propane-2-sulfonamide or (1R,2S)-N-(4-(4,6-dimethoxypyrimidin-5-yl)-5-((R)-tetrahydrofuran-2-yl)-4H-1,2,4-triazol-3-yl)-1-methoxy-1-(5-methylpyrazin-2-yl)propane-2-sulfonamide [Example 185.0]  0.51 µM
17. CO[C@H](c1ncc(Cl)cn1)[C@H](C)S(=O)(=O)Nc1nnc([C@H]2CCOC2)n1C1(C)CC1 (single isomer, unassigned) [Example 125.0, (1R,2S)-1-(5-chloropyrimidin-2-yl)-1-methoxy-N-(4-(1-methylcyclopropyl)-5-((R)-tetrahydrofuran-3-yl)-4H-1,2,4-triazol-3-yl)propane-2-sulfonamide or (1R,2S)-1-(5-chloropyrimidin-2-yl)-1-methoxy-N-(4-(1-methylcyclopropyl)-5-((S)-tetrahydrofuran-3-yl)-4H-1,2,4-triazol-3-yl)propane-2-sulfonamide]  0.54 µM
